PubChem BioAssay (NCI)
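The concentration for 50% growth inhibition is given as GI50. TGI is the concentration that stops growth completely.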

Legend:
Assay in all cases: growth of human tumour cells (NCI), 384-well format
MCF7 breast = system: MCF7 breast
SR leukemia = system: SR leukemia
NCI/ADR-RES ovarian = system: NCI/ADR-RES ovarian
NCI-H460 NSCLC = system: NCI-H460 NSCLC
UACC-257 melanoma = system: UACC-257 melanoma
SN12C renal = system: SN12C renal
RPMI-8226 leukemia = system: RPMI-8226 leukemia
OVCAR-3 ovarian = system: OVCAR-3 ovarian
SW-620 colon = system: SW-620 colon
TK-10 renal = system: TK-10 renal
UACC-62 melanoma = system: UACC-62 melanoma
NCI-H522 lung = system: NCI-H522 lung
COLO 205 colon = system: COLO 205 colon
CAKI-1 renal = system: CAKI-1 renal
MALME-3M melanoma = system: MALME-3M melanoma
NCI-H226 lung = system: NCI-H226 lung
OVCAR-4 ovarian = system: OVCAR-4 ovarian
A549 NSCLC = system: A549 NSCLC
HCT-116 colon = system: HCT-116 colon
U251 glioblastoma = system: U251 glioblastoma
NCI-H23 lung = system: NCI-H23 lung
K-562 leukemia = system: K-562 leukemia
EKVX NSCLC = system: EKVX NSCLC
PC-3 prostate = system: PC-3 prostate
HS 578T breast = system: HS 578T breast
CCRF-CEM leukemia = system: CCRF-CEM leukemia
MDA-MB-468 breast = system: MDA-MB-468 breast
LOX IMVI melanoma = system: LOX IMVI melanoma
SF-268 CNS = system: SF-268 CNS
MDA-MB-231 breast = system: MDA-MB-231 breast
SF-539 CNS = system: SF-539 CNS
HCT-15 colon = system: HCT-15 colon
HCC-2998 colon = system: HCC-2998 colon
IGROV1 ovarian = system: IGROV1 ovarian
BT-549 breast = system: BT-549 breast
SK-OV-3 ovarian = system: SK-OV-3 ovarian
SF-295 CNS = system: SF-295 CNS
MOLT-4 leukemia = system: MOLT-4 leukemia
T-47D breast = system: T-47D breast
NCI-H322M lung = system: NCI-H322M lung
ACHN renal = system: ACHN renal
SK-MEL-5 melanoma = system: SK-MEL-5 melanoma
UO-31 renal = system: UO-31 renal
RXF 393 renal = system: RXF 393 renal
HL-60(TB) leukemia = system: HL-60(TB) leukemia
HOP-62 NSCLC = system: HOP-62 NSCLC
SK-MEL-28 melanoma = system: SK-MEL-28 melanoma
MDA-MB-435 melanoma = system: MDA-MB-435 melanoma
DU-145 prostate = system: DU-145 prostate
OVCAR-8 ovarian = system: OVCAR-8 ovarian
786-0 renal = system: 786-0 renal

COc1ccc(/C=C\c2cc(OC)c(OC)c(OC)c2)cc1NC(=O)[C@@H](N)CO
GI50 (MCF7 breast): 24.4 nM
TGI (MCF7 breast): 12700 nM
GI50 (SR leukemia): < 10 nM
TGI (SR leukemia): < 10 nM
GI50 (NCI/ADR-RES ovarian): < 10 nM
TGI (NCI/ADR-RES ovarian): < 10 nM
GI50 (NCI-H460 NSCLC): 17.3 nM
TGI (NCI-H460 NSCLC): 36 nM
GI50 (UACC-257 melanoma): < 10 nM
TGI (UACC-257 melanoma): > 100000 nM
GI50 (SN12C renal): < 10 nM
TGI (SN12C renal): 11900 nM
GI50 (RPMI-8226 leukemia): < 10 nM
TGI (RPMI-8226 leukemia): < 10 nM
GI50 (OVCAR-3 ovarian): < 10 nM
TGI (OVCAR-3 ovarian): 20.7 nM
GI50 (SW-620 colon): < 10 nM
TGI (SW-620 colon): > 100000 nM
GI50 (TK-10 renal): < 10 nM
TGI (TK-10 renal): > 100000 nM
GI50 (UACC-62 melanoma): < 10 nM
TGI (UACC-62 melanoma): > 100000 nM
GI50 (NCI-H522 lung): < 10 nM
TGI (NCI-H522 lung): < 10 nM
GI50 (COLO 205 colon): < 10 nM
TGI (COLO 205 colon): < 10 nM
GI50 (CAKI-1 renal): < 10 nM
TGI (CAKI-1 renal): > 100000 nM
GI50 (MALME-3M melanoma): < 10 nM
TGI (MALME-3M melanoma): > 100000 nM
GI50 (NCI-H226 lung): < 10 nM
TGI (NCI-H226 lung): 25.3 nM
GI50 (OVCAR-4 ovarian): 13.7 nM
TGI (OVCAR-4 ovarian): > 100000 nM
GI50 (A549 NSCLC): < 10 nM
TGI (A549 NSCLC): > 100000 nM
GI50 (HCT-116 colon): < 10 nM
TGI (HCT-116 colon): 103 nM
GI50 (U251 glioblastoma): < 10 nM
TGI (U251 glioblastoma): 17900 nM
GI50 (NCI-H23 lung): < 10 nM
TGI (NCI-H23 lung): 16.3 nM
GI50 (K-562 leukemia): < 10 nM
TGI (K-562 leukemia): 12.3 nM
GI50 (EKVX NSCLC): < 10 nM
TGI (EKVX NSCLC): > 100000 nM
GI50 (PC-3 prostate): < 10 nM
TGI (PC-3 prostate): > 100000 nM
GI50 (HS 578T breast): < 10 nM
TGI (HS 578T breast): < 10 nM
GI50 (CCRF-CEM leukemia): < 10 nM
TGI (CCRF-CEM leukemia): < 10 nM
GI50 (MDA-MB-468 breast): 13.3 nM
TGI (MDA-MB-468 breast): 29.7 nM
GI50 (LOX IMVI melanoma): 12.2 nM
TGI (LOX IMVI melanoma): 80.3 nM
GI50 (SF-268 CNS): < 10 nM
TGI (SF-268 CNS): 78.5 nM
GI50 (MDA-MB-231 breast): < 10 nM
TGI (MDA-MB-231 breast): > 100000 nM
GI50 (SF-539 CNS): < 10 nM
TGI (SF-539 CNS): 27.7 nM
GI50 (HCT-15 colon): < 10 nM
TGI (HCT-15 colon): 92.2 nM
GI50 (HCC-2998 colon): < 10 nM
TGI (HCC-2998 colon): 29.7 nM
GI50 (IGROV1 ovarian): < 10 nM
TGI (IGROV1 ovarian): 35900 nM
GI50 (BT-549 breast): < 10 nM
TGI (BT-549 breast): 25.2 nM
GI50 (SK-OV-3 ovarian): < 10 nM
TGI (SK-OV-3 ovarian): 12000 nM
GI50 (SF-295 CNS): < 10 nM
TGI (SF-295 CNS): < 10 nM
GI50 (MOLT-4 leukemia): < 10 nM
TGI (MOLT-4 leukemia): < 10 nM
GI50 (T-47D breast): < 10 nM
TGI (T-47D breast): 68600 nM
GI50 (NCI-H322M lung): < 10 nM
TGI (NCI-H322M lung): > 100000 nM
GI50 (ACHN renal): < 10 nM
TGI (ACHN renal): 52200 nM
GI50 (SK-MEL-5 melanoma): < 10 nM
TGI (SK-MEL-5 melanoma): < 10 nM
GI50 (UO-31 renal): < 10 nM
TGI (UO-31 renal): > 100000 nM
GI50 (RXF 393 renal): < 10 nM
TGI (RXF 393 renal): < 10 nM
GI50 (HL-60(TB) leukemia): < 10 nM
TGI (HL-60(TB) leukemia): < 10 nM
GI50 (HOP-62 NSCLC): < 10 nM
TGI (HOP-62 NSCLC): 196 nM
GI50 (SK-MEL-28 melanoma): < 10 nM
TGI (SK-MEL-28 melanoma): > 100000 nM
GI50 (MDA-MB-435 melanoma): < 10 nM
TGI (MDA-MB-435 melanoma): < 10 nM
GI50 (DU-145 prostate): < 10 nM
TGI (DU-145 prostate): 70.1 nM
GI50 (OVCAR-8 ovarian): 10.4 nM
TGI (OVCAR-8 ovarian): 35.9 nM
GI50 ([…]-0 renal): < 10 nM
TGI (786-0 renal): 58.2 nM
